Assay results from US20030180345A1, “Compositions and methods for inhibiting islet dysfunction and autoimmune disorders” (priority 2000, published 2003).

What was measured:
fetal pancreas = assay: Fetal pancreatic vascularization with taurine supplementation; assay type: in vivo, Wistar rats; details: LP diet + taurine in drinking water; fetal day 21.5
Experimental: Animals and diets were as described above in Example 1. The fetal pancreas was removed at day 21.5. Vascular density, expressed as a percent of area, and number of blood vessels per unit area were evaluated.

islet cells = assay: Islet cell proliferation with maternal dietary taurine supplementation (BrdU immunostaining); assay type: in vivo, Wistar rats
Experimental: Adult virgin female Wistar rats were caged overnight with males and copulation was verified the next morning. Animals were maintained at 25° C. with a 10 h-14 h dark-light cycle. Pregnant rats were divided into four groups and fed one of the following isocaloric diets, either with or without taurine supplemented in the drinking water. […] The composition of the basal and low protein diets were described previously by Snoeck et a/.1990 (Biol. Neonate 57, 107-118). The diets were purchased from Hope Farms (Woerden, Holland). Animals in both the groups had free access to water at all times. Animals were divided into four groups to assess various parameters at different time periods. Females were sacrificed at 21.5 days of gestation by decapitation and fetuses were removed in order to evaluate parameters at fetal day 21.5 (F 21.5). Alternatively, animals gave birth and offspring were sacrificed at post-natal day 12, 14 or 30 (PN 12, PN 14, and PN 30, respectively). Bromodeoxyuridine (BrdU) incorporation was evaluated by immunostaining as described by […] et al., (Endocrinology 1999;140: 4861-4873).

With `NCCS(=O)(=O)O` [taurine, 2-aminoethylsulfonic acid] the “blood vessel numbers per unit area” value (fetal pancreas) was “restoring both vascularization parameters to the level of the control groups”, the “vascular density (percent of area)” value (fetal pancreas) was “restoring both vascularization parameters to the level of the control groups” and the “β cell proliferation rate (BrdU incorporation)” value (islet cells; C+Taurine, 2.5% taurine in maternal drinking water) was “did not significantly increase”. For the same molecule, the “islet cell proliferation rate (BrdU incorporation)” value (islet cells; LP+Taurine, 2.5% (weight/volume) taurine in maternal drinking water) was “restore the proliferation rate to a level not significantly different from the control diet”.
